Values quoted from earlier work as cited in US20210298296A1, “METHOD OF PREVENTING MICROBES IN DISPOSABLE PRODUCTS” (priority 2020, published 2021).

How the values were obtained:
[1] = tested on: nail fungus (onychomycosis); conditions: 117 patients; six months, twice-daily topical 1% clotrimazole or 100% Tea Tree Oil
[2] = tested on: cells activated by monocytes; conditions: water-soluble components of Tea Tree Oil
[3] = tested on: S. aureus, Staphylococcus epidermidis, Propionibacterium acnes
[4] = tested on: influenza virus subtype H1N1
Staphylococcus aureus = conditions: in vitro
[5] = 104 patients, 10% w/w Tea Tree Oil cream vs 1% tolnaftate vs placebo

Cc1cccc(N(C)C(=S)Oc2ccc3ccccc3c2)c1 [tolnaftate]
conversion to negative culture at the end of therapy (tinea pedis; [5]): showed conversion to negative culture
improvements in clinical symptoms (tinea pedis; [5]): significant improvements in clinical symptoms
cure rate for tinea pedis (tinea pedis; human, in vivo): 80%

O=C(OOC(=O)c1ccccc1)c1ccccc1 [benzoyl peroxide, reference compound]
number of inflamed and non-inflamed lesions (acne vulgaris (P. acnes); 124 patients, 5% Tea Tree Oil gel vs 5% benzoyl peroxide lotion): significantly reduced the number of inflamed and non-inflamed lesions

Clc1ccccc1C(c1ccccc1)(c1ccccc1)n1ccnc1 [clotrimazole]
clinical resolution of the infection [1]: clinically documented resolution of the infection
fungus in cultures [1]: decrease in fungus in cultures

CC1=CCC(O)(C(C)C)CC1 (stereo not shown) [Terpinen-4-ol, 4-methyl-1-(1-methylethyl)-3-cyclohexen-1-ol]
contribution to the antiprotozoal activity of Tea Tree Oil (Leishmania major): contributed significantly to this activity
contribution to the antiprotozoal activity of Tea Tree Oil (Trypanosoma brucei): contributed significantly to this activity
inflammatory response [2]: suppress the inflammatory response
inhibitory effect on all three organisms [3]: inhibitory
antiviral activity against influenza virus subtype H1N1 [4]: principally attributed to Terpinen-4-ol
activity against Staphylococcus aureus, Terpinen-4-ol compared with whole Tea Tree Oil (Staphylococcus aureus): equally effective
growth of human melanoma cells (human melanoma cells): impair the growth of human melanoma cells

Tea Tree Oil
adverse side effects (skin scaling, dryness, irritation) (acne vulgaris (P. acnes); human, in vivo): fewer adverse side effects

CC1=CCC2CC1C2(C)C (stereo not drawn) [alpha-pinene]
inhibitory effect on all three organisms [3]: inhibitory

CC1=CCC(C(C)(C)O)CC1 (stereo not drawn) [alpha-terpineol]
inhibitory effect on all three organisms [3]: inhibitory
